Laboratory results reported in ChEMBL document CHEMBL1201862, “PubChem BioAssay data set” (2004).
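The compound was tested at five concentrations on cells cultured in 96-well plates, with a 48-hour exposure period. GI50: concentration for 50% inhibition of growth.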 Calls of active or inactive are those of the source. Cut-off read from the data, not from the text of the source: active = GI50 up to about 1.1 µM and inactive = higher.

Assays:
Test in all cases: NCI anticancer screen, dose series, 48 h
[1] = system: A498
[2] = system: COLO 205
[3] = system: EKVX
[4] = system: HCC 2998
[5] = system: HCT-15
[6] = system: HOP-62
[7] = system: HOP-92
[8] = system: LOX IMVI
[9] = system: M14
[10] = system: MDA-MB-231
[11] = system: MDA-MB-435
[12] = system: MOLT-4
[13] = system: NCI-H522
[14] = system: OVCAR-8
[15] = system: SF-268
[16] = system: SF-295
[17] = system: SK-MEL-28
[18] = system: SN12C
[19] = system: SR
[20] = system: U-251

SMILES	GI50 [1]	GI50 [2]	GI50 [3]	GI50 [4]	GI50 [5]	GI50 [6]	GI50 [7]	GI50 [8]	GI50 [9]	GI50 [10]	GI50 [11]	GI50 [12]	GI50 [13]	GI50 [14]	GI50 [15]	GI50 [16]	GI50 [17]	GI50 [18]	GI50 [19]	GI50 [20]
Cc1cnc2c(c1)C(=O)N(c1ccc([N+](=O)[O-])cc1)S2(=O)=O	68.4 µM (inactive)	> 100 µM (inactive)	> 100 µM (inactive)	> 100 µM (inactive)	66.1 µM	> 100 µM (inactive)	> 100 µM (inactive)	73.5 µM (inactive)	> 100 µM (inactive)	> 100 µM (inactive)	70.5 µM (inactive)	> 100 µM (inactive)	25.1 µM (inactive)	> 100 µM (inactive)	77.8 µM (inactive)	82.8 µM (inactive)	74 µM (inactive)	> 100 µM (inactive)	25.7 µM (inactive)	67.1 µM (inactive)
COc1cc2c(cc1OCCCNC(=O)c1cc3ccccc3[nH]1)N=C[C@@H]1CCCN1C2=O	0.0527 µM (active)	0.391 µM (active)	1.02 µM (active)	0.664 µM (active)	0.897 µM	0.326 µM (active)	7.43 µM (inactive)	0.421 µM (active)	0.305 µM (active)	0.466 µM (active)	0.243 µM (active)	0.125 µM (active)	0.0141 µM (active)	0.301 µM (active)	0.082 µM (active)	0.405 µM (active)	0.318 µM (active)	0.409 µM (active)	0.19 µM (active)	0.148 µM (active)
CCOC(=O)C(NC(=O)CC(C)C)(Nc1ccc(S(=O)(=O)Nc2nc(C)cc(C)n2)cc1)C(F)(F)F (stereo not given)	> 100 µM (inactive)	> 100 µM (inactive)	> 100 µM (inactive)	7.87 µM (inactive)	> 100 µM	> 100 µM (inactive)	> 100 µM (inactive)	> 100 µM (inactive)	> 100 µM (inactive)	> 100 µM (inactive)	> 100 µM (inactive)	> 100 µM (inactive)	> 100 µM (inactive)	> 100 µM (inactive)	> 100 µM (inactive)	> 100 µM (inactive)	> 100 µM (inactive)	> 100 µM (inactive)	> 100 µM (inactive)	> 100 µM (inactive)
C=CC1C(OC2OC(CO)C(O)C(O)C2O)OC=C(C(=O)OC)C1CC1CC(=O)CC(CCc2ccc(O)cc2)O1 (stereo not given)	> 100 µM (inactive)	> 100 µM (inactive)	> 100 µM (inactive)	> 100 µM (inactive)	> 100 µM	> 100 µM (inactive)	> 100 µM (inactive)	> 100 µM (inactive)	> 100 µM (inactive)	> 100 µM (inactive)	> 100 µM (inactive)	> 100 µM (inactive)	> 100 µM (inactive)	> 100 µM (inactive)	> 100 µM (inactive)	> 100 µM (inactive)	> 100 µM (inactive)	> 100 µM (inactive)	> 100 µM (inactive)	> 100 µM (inactive)
CC1(C)OCC2OC3(c4nc(C#N)c(N)o4)OC(C)(C)OC3C2O1 (stereo not given)	> 100 µM (inactive)	> 100 µM (inactive)	> 100 µM (inactive)	> 100 µM (inactive)	> 100 µM	> 100 µM (inactive)	> 100 µM (inactive)	> 100 µM (inactive)	> 100 µM (inactive)	> 100 µM (inactive)	> 100 µM (inactive)	> 100 µM (inactive)	> 100 µM (inactive)	> 100 µM (inactive)	> 100 µM (inactive)	> 100 µM (inactive)	> 100 µM (inactive)	> 100 µM (inactive)	> 100 µM (inactive)	> 100 µM (inactive)
CC(C)(C)C1=CC(=CC=C2C=CN(CCCCCCCCCCCO)C=C2)C=C(C(C)(C)C)C1=O	3.01 µM (inactive)	1.69 µM (inactive)	1.96 µM (inactive)	0.838 µM (active)	2.6 µM	1.74 µM (inactive)	1.83 µM (inactive)	0.735 µM (active)	1.75 µM (inactive)	1.63 µM (inactive)	1.7 µM (inactive)	1.32 µM (inactive)	0.453 µM (active)	1.31 µM (inactive)	1.57 µM (inactive)	1.38 µM (inactive)	1.78 µM (inactive)	1.25 µM (inactive)	0.401 µM (active)	0.782 µM (active)
Cc1cccc2c1C(=O)C1(Cc3ccccc3C1=O)C2 (stereo not given)	47.1 µM (inactive)	> 100 µM (inactive)	> 100 µM (inactive)	> 100 µM (inactive)	> 100 µM	> 100 µM (inactive)	> 100 µM (inactive)	> 100 µM (inactive)	> 100 µM (inactive)	> 100 µM (inactive)	> 100 µM (inactive)	91.2 µM (inactive)	> 100 µM (inactive)	> 100 µM (inactive)	> 100 µM (inactive)	> 100 µM (inactive)	> 100 µM (inactive)	> 100 µM (inactive)	> 100 µM (inactive)	> 100 µM (inactive)
CCOC(=O)C(NNS(=O)(=O)c1ccc(C)cc1)S(=O)(=O)C(F)(F)C(F)(F)C(F)(F)C(F)(F)F (stereo not given)	> 100 µM (inactive)	> 100 µM (inactive)	> 100 µM (inactive)	> 100 µM (inactive)	> 100 µM	> 100 µM (inactive)	54.7 µM (inactive)	> 100 µM (inactive)	> 100 µM (inactive)	> 100 µM (inactive)	> 100 µM (inactive)	81.8 µM (inactive)	> 100 µM (inactive)	> 100 µM (inactive)	> 100 µM (inactive)	78.3 µM (inactive)	> 100 µM (inactive)	> 100 µM (inactive)	> 100 µM (inactive)	88.9 µM (inactive)
C=CCN1C(=O)/C(=C/c2ccc(Cl)cc2)N=C1SC/C=C/C	33.9 µM (inactive)	32.1 µM (inactive)	26.4 µM (inactive)	49.9 µM (inactive)	34.2 µM	> 100 µM (inactive)	24.2 µM (inactive)	34 µM (inactive)	31 µM (inactive)	42.4 µM (inactive)	33.6 µM (inactive)	17.5 µM (inactive)	28.4 µM (inactive)	29.5 µM (inactive)	48.3 µM (inactive)	46.9 µM (inactive)	53.2 µM (inactive)	21.7 µM (inactive)	17.5 µM (inactive)	27.4 µM (inactive)
CC(=O)NNc1nc(C)c(C(/C=C/c2ccccc2O)=N/NC(=O)c2ccncc2)s1	> 100 µM (inactive)	> 100 µM (inactive)	> 100 µM (inactive)	> 100 µM (inactive)	> 100 µM	> 100 µM (inactive)	> 100 µM (inactive)	> 100 µM (inactive)	> 100 µM (inactive)	> 100 µM (inactive)	> 100 µM (inactive)	> 100 µM (inactive)	> 100 µM (inactive)	> 100 µM (inactive)	> 100 µM (inactive)	> 100 µM (inactive)	> 100 µM (inactive)	> 100 µM (inactive)	> 100 µM (inactive)	> 100 µM (inactive)
C/C(=C1/N=C(c2ccccc2)OC1=O)c1ccc(C)cc1	> 100 µM (inactive)	> 100 µM (inactive)	> 100 µM (inactive)	> 100 µM (inactive)	> 100 µM	> 100 µM (inactive)	> 100 µM (inactive)	> 100 µM (inactive)	> 100 µM (inactive)	> 100 µM (inactive)	> 100 µM (inactive)	> 100 µM (inactive)	> 100 µM (inactive)	> 100 µM (inactive)	> 100 µM (inactive)	> 100 µM (inactive)	> 100 µM (inactive)	> 100 µM (inactive)	> 100 µM (inactive)	> 100 µM (inactive)
O=C(O)c1c(O)c2cc(Br)ccc2oc1=O	> 100 µM (inactive)	> 100 µM (inactive)	> 100 µM (inactive)	> 100 µM (inactive)	> 100 µM	> 100 µM (inactive)	72.1 µM (inactive)	> 100 µM (inactive)	> 100 µM (inactive)	> 100 µM (inactive)	> 100 µM (inactive)	> 100 µM (inactive)	> 100 µM (inactive)	> 100 µM (inactive)	> 100 µM (inactive)	> 100 µM (inactive)	> 100 µM (inactive)	> 100 µM (inactive)	> 100 µM (inactive)	> 100 µM (inactive)
COc1nc2ccc(COc3ccc(C(=O)O)cc3)cc2nc1OC	95.7 µM (inactive)	> 100 µM (inactive)	> 100 µM (inactive)	58.2 µM (inactive)	65.6 µM	> 100 µM (inactive)	47.5 µM (inactive)	54.1 µM (inactive)	66.1 µM (inactive)	> 100 µM (inactive)	33.7 µM (inactive)	> 100 µM (inactive)	> 100 µM (inactive)	36.4 µM (inactive)	82 µM (inactive)	32.9 µM (inactive)	66.4 µM (inactive)	> 100 µM (inactive)	41.4 µM (inactive)	87.1 µM (inactive)
NS(=O)(=O)c1ccc(NCc2cccc3c(=O)c4ccc(Cl)cc4oc23)cc1	> 75.3 µM (inactive)	55.1 µM (inactive)	> 33.8 µM (inactive)	> 82.4 µM (inactive)	11.5 µM	39.7 µM (inactive)	12.6 µM (inactive)	20.9 µM (inactive)	27.8 µM (inactive)	52 µM (inactive)	19.7 µM (inactive)	19.7 µM (inactive)	> 39.2 µM (inactive)	24.2 µM (inactive)	19.5 µM (inactive)	59.4 µM (inactive)	> 79.8 µM (inactive)	> 56.6 µM (inactive)	4.68 µM (inactive)	23.8 µM (inactive)
